Measurements reported in patent US8709445B2, “Vaccination with killed but metabolically active (KBMA) protozoans with toll-like receptor agonists” (priority 2007, dated 2014).
“Also recorded” adds a separate entry of the source.

How the values were obtained:
[1] = system: L. chagasi; assay type: in vivo, Leishmania chagasi; details: for protection (reduction in liver parasite load): pilot experiment, combination of subcutaneous KBMA-LC and topically applied TLR agonist
Experimental: On the day prior to each vaccination, mice were anesthetized by intraperitoneal injection of 0.2 ml a solution of ketamine 9.1 mg/ml and xylazine 0.73 mg/ml. A 2×3 cm patch of fur in the dorsal cervical area was shaved, and 50 mg of adjuvant cream—either imiquimod 5% cream or appropriate vehicle (3M Pharmaceuticals)—was applied topically to the shaved area. On the day of immunization, mice were anesthetized as above. Unfractionated late-log to stationary phase promastigotes (live or KBMA) were spun at 2000 g for 10 minutes, resuspended in PBS, counted on a Neubauer hemocytometer, and volume-adjusted to a final concentration of 10^8 organisms/ml. One hundred micoliters of the appropriate parasite suspension (10^7 organisms) or 100 μl of PBS for controls was subcutaneously injected into the dorsal-cervical area of anesthetized mice using a 28-gauge needle. Adjuvant cream was then applied at the shaved skin site as above. On the day after immunization, adjuvant cream was once again applied topically as above on unanesthetized mice. For each experiment, mice were immunized three times at two-week intervals. Two weeks after the final immunization, mice were challenged by intravenous injection with 10^7 unfractionated late-log to stationary phase promastigotes in 0.2 ml of PBS.
Vaccinated mice were sacrificed by CO2 inhalation 4 weeks after intravenous challenge. Livers and spleens were weighed. Impression smears on glass slides were made from dissected spleen and liver tissue and were then methanol-fixed and amastigotes were detected with Giemsa stain. Organ parasite load was scored by direct microscopy and rendered in Leishman-Donavan Units (LDU), defined as number of parasites divided by number of mammalian cells multiplied by the organ mass in milligrams. At least 500 mammalian cells or 500 parasites were counted by a scorer blinded to the vaccination groups.

[2] = system: Leishmania chagasi; assay: In vitro luciferase assay of parasite metabolic activity after S-59 and UVA; assay type: cell-based
Experimental: The L. chagasi strain (MHOM/BR/00/1669), originally isolated from a patient with visceral leishmaniasis in Northeast Brazil, was maintained by serial intracardiac injection in outbred male golden hamsters. Virulent amastigotes were isolated from hamster spleens removed from animals infected approximately 3 months prior to sacrifice. Promastigotes were cultured in hemoflagellate minimal essential medium (HOMEM) at 26° C. and were used for vaccination or challenge within one month of harvest from the hamsters. Killed But Metabolically Active (KBMA) promastigotes were prepared by incubating late-log or stationary phase organisms in amotosalen (S-59) 100 nM for one hour while shaking at room temperature, followed by cross-linking of DNA using UVA irradiation of aliquots of 2 ml of cells in 6 well plates in an Intercept Illuminator (Cerus Corporation). Radiation dose was 5.4 J/cm^2. Heat-killed organisms were prepared by incubating in a 100° C. bath for 10 minutes. Transgenic firefly luciferase expressing L. chagasi and L. major were kindly provided by Dr. Beverley. For CFSE-based flow cytometry experiments, promastigotes were stained with CFSE at 5 μM and, shaken at 37° C. for 10 minutes. Parasites were washed three times with PBS and then cultured at an initial concentration of 5×10^6 per ml in HOMEM for in vitro experiments or injected into mice in 200 μL, of PBS at a concentration of 5×10^8 per ml.
Serial measures of parasite luciferase activity were made using a Sirius Single Tube Luminometer (Berthold Detection Systems). Aliquots of cultured organisms were taken daily and combined with 5× reporter lysis buffer per the manufacturer's instructions, and frozen at −80° C. All samples were then snap-thawed at 37° C. on the day of assay. 50 μl samples from each aliquot were combined with 100 μl of luciferin and luminescence was quantified with the luminometer in relative luminsescence units (RLU).
A mouse visceral leishmaniasis model employing Leishmania chagasi expressing firefly luciferase was used to test the susceptibility of a eukaryotic pathogen to in vitro inactivation?). L. chagasi were treated with varying doses of S-59 for 1 hour and then exposed to 5.4 J/cm2 UVA using a commercial illuminator which delivers tightly metered UVA doses to a shaking flask of organisms. This UVA dose was determined based on prior experience with Listeria. After irradiation with UVA, parasites were kept in culture and assayed at various time points for luciferase expression as a measure of metabolic activity. […] To determine if the S-59 induced decline in luciferase activity was associated with an inability to replicate, live L. chagasi promastigotes were stained with the intracellular dye CFSE and monitored for 1 week in culture.

[3] = system: L. chagasi promastigotes; assay: CFSE flow cytometry of promastigote replication in culture; assay type: cell-based, Leishmania chagasi; details: 100 nM S-59 and 5.4 Joules/cm^2 UVA; days 1-7 in culture
Experimental: The L. chagasi strain (MHOM/BR/00/1669), originally isolated from a patient with visceral leishmaniasis in Northeast Brazil, was maintained by serial intracardiac injection in outbred male golden hamsters. Virulent amastigotes were isolated from hamster spleens removed from animals infected approximately 3 months prior to sacrifice. Promastigotes were cultured in hemoflagellate minimal essential medium (HOMEM) at 26° C. and were used for vaccination or challenge within one month of harvest from the hamsters. Killed But Metabolically Active (KBMA) promastigotes were prepared by incubating late-log or stationary phase organisms in amotosalen (S-59) 100 nM for one hour while shaking at room temperature, followed by cross-linking of DNA using UVA irradiation of aliquots of 2 ml of cells in 6 well plates in an Intercept Illuminator (Cerus Corporation). Radiation dose was 5.4 J/cm^2. […]
A mouse visceral leishmaniasis model employing Leishmania chagasi expressing firefly luciferase was used to test the susceptibility of a eukaryotic pathogen to in vitro inactivation?). […] This UVA dose was determined based on prior experience with Listeria. […] To determine if the S-59 induced decline in luciferase activity was associated with an inability to replicate, live L. chagasi promastigotes were stained with the intracellular dye CFSE and monitored for 1 week in culture.

[4] = system: splenocytes; assay: Luminex cytokine production in splenocytes from immunized mice; assay type: in vivo, BALB/c mice
Experimental: FIG. 11C: Luminex quantitation of cytokine production in splenocytes from L. chagasi immunized BALB/c mice with or without adjuvant 5% imiquimod. Mice were immunized three times at two week as in FIG. 10. Two weeks after the final vaccination, animals were sacrificed and 10^6 splenocytes from each were cultured for 66 hours in either in the presence of live L. chagasi. Supernatants from these cultures were frozen and then subsequently thawed and analyzed by the luminex method using antibodies and antibody coated beads specific for the indicated cyotokines. Bars show concentration of the relevant cytokine in pg/ml+/−SEM.
In a parallel experiment, groups of mice were vaccinated and boosted twice as described above. Splenocytes were harvested from these animals 2 weeks after the third vaccination. Splenocytes were then stimulated with either live LC promastigotes or soluble L. chagasi antigen (SLA) for 66 hours in culture and supernatants were harvested.

SMILES	protection (reduction in liver parasite load) [1] [%]	time by which all detectable metabolic activity was abolished ([2]; 10^7 promastigotes, 100 nM S-59 and 5.4 Joules/cm^2 UVA) [weeks]	luciferase activity by day 21 ([2]; 100 nm S-59 and UVA, culture inoculated at 10^7 per ml)	effect of higher doses of S-59 on luciferase activity ([2]; doses higher than 100 nM, with UVA, data not shown)	S-59 dose leading to breakthrough outgrowth of parasites ([2]; with 5.4 J/cm2 UVA, data not shown)	replication of CFSE stained promastigotes (per parasite fluorescence) [3]	effect of adjuvant only ([1]; Example 3, imiquimod 5% without whole cell vaccine (PBS))	effect of adjuvant cream compared to control vehicle cream ([1]; Example 3, topical 5% cream in each vaccination group)	pattern of cytokine expression, whole cell vaccines with adjuvant versus vehicle ([4]; imiquimod 5% with whole cell vaccines)	cytokine production, PBS with adjuvant versus PBS with vehicle ([4]; imiquimod 5% without whole cell vaccine)
CCOCc1nc2c(N)nc3ccccc3c2n1CC(C)(C)O [resiquimod, 4-Amino-2-(ethoxymethyl)-a,a-dimethyl-1H-imidazo[4,5-c]quinoline-1-ethanol]	87	–	–	–	–	–	–	–	–	–
Cc1oc2c(C)c3oc(=O)cc(C)c3cc2c1COCCN [S-59, amotosalen]	–	≤ 3	approaches baseline luminescence from PBS	more rapid decline in luciferase activity	lower than 50 nM	no such diminution; also recorded: arrests replication	–	–	–	–
CC(C)Cn1cnc2c(N)nc3ccccc3c21 [imiquimod, 1-isobutyl-1H-imidazo[4,5-c]quinolin-4-amine]	68	–	–	–	–	–	trend towards a protective effect	additional protection	increased IFN-γ but decreased IL-10, IL-4, and IL-5	no increase in cytokine production
